# Reference: ChEMBL document CHEMBL3885881, “DrugMatrix”
# Species on record: Rattus norvegicus
# Assay: DrugMatrix - Regimen: Daily Repeat
# Format: toxicity, organism-based, Sprague-Dawley
# Parameters: regimen Daily Repeat, gender Male, age 6-8 weeks
# Settings: in vivo, po, 18 mg/kg, route oral GAVAGE, dose level High, […]; for ABSOLUTE BASOPHIL / ABSOLUTE EOSINOPHIL / ABSOLUTE LYMPHOCYTE / ABSOLUTE MONOCYTE / ABSOLUTE SEGMENTED NEUTROPHIL / BASOPHIL / EOSINOPHIL / ERYTHROCYTE COUNT / HEMATOCRIT / HEMOGLOBIN / LEUKOCYTE COUNT / LYMPHOCYTE / MEAN CORPUSCULAR HEMOGLOBIN / MEAN CORPUSCULAR HEMOGLOBIN CONCENTRATION / MEAN CORPUSCULAR VOLUME / MONOCYTE / NEUTROPHIL / NUCLEATED RED BLOOD CELLS / PLATELET COUNT: tissue Blood; for ALANINE AMINOTRANSFERASE / ALBUMIN / ALKALINE PHOSPHATASE / ASPARTATE AMINOTRANSFERASE / BLOOD UREA NITROGEN / CARBON DIOXIDE / CHLORIDE / CHOLESTEROL / CREATINE PHOSPHOKINASE / CREATININE / GLUCOSE / LACTATE DEHYDROGENASE / LIPASE / PHOSPHORUS / POTASSIUM / SODIUM / TOTAL BILIRUBIN / TOTAL PROTEIN / URIC ACID: tissue Plasma
smiles,measurement,setting,value
CC(C(=O)O)c1ccc(CC2CCCC2=O)cc1 (stereo unspecified) [LOXOPROFEN],ABSOLUTE BASOPHIL,"72 h, time 3 day",0 CELLS/uL
same,ABSOLUTE EOSINOPHIL,"72 h, time 3 day",0 CELLS/uL
same,ABSOLUTE LYMPHOCYTE,"72 h, time 3 day",12885.33 CELLS/uL
same,ABSOLUTE MONOCYTE,"72 h, time 3 day",42.67 CELLS/uL
same,ABSOLUTE SEGMENTED NEUTROPHIL,"72 h, time 3 day",1338.67 CELLS/uL
same,BASOPHIL,"72 h, time 3 day",0%
same,EOSINOPHIL,"72 h, time 3 day",0%
same,ERYTHROCYTE COUNT,"72 h, time 3 day",5.2 x10E6/uL
same,HEMATOCRIT,"72 h, time 3 day",32.2%
same,HEMOGLOBIN,"72 h, time 3 day",13.03 G/DL
same,LEUKOCYTE COUNT,"72 h, time 3 day",14.27 x10E3/uL
same,LYMPHOCYTE,"72 h, time 3 day",90.67%
same,MEAN CORPUSCULAR HEMOGLOBIN,"72 h, time 3 day",25.1 pg
same,MEAN CORPUSCULAR HEMOGLOBIN CONCENTRATION,"72 h, time 3 day",40.53 G/DL
same,MEAN CORPUSCULAR VOLUME,"72 h, time 3 day",61.93 fL
same,MONOCYTE,"72 h, time 3 day",0.33%
same,NEUTROPHIL,"72 h, time 3 day",9%
same,NUCLEATED RED BLOOD CELLS,"72 h, time 3 day",0 /100WBC
same,PLATELET COUNT,"72 h, time 3 day",1130.33 x10E3/uL
same,ALANINE AMINOTRANSFERASE,"72 h, time 3 day",76.67 u/L
same,ALBUMIN,"72 h, time 3 day",4.03 G/DL
same,ALKALINE PHOSPHATASE,"72 h, time 3 day",346.33 u/L
same,ASPARTATE AMINOTRANSFERASE,"72 h, time 3 day",93 u/L
same,BLOOD UREA NITROGEN,"72 h, time 3 day",15.67 mg/dL
same,CARBON DIOXIDE,"72 h, time 3 day",30.33 mmol/L
same,CHLORIDE,"72 h, time 3 day",102.33 MEQ/L
same,CHOLESTEROL,"72 h, time 3 day",83 mg/dL
same,CREATINE PHOSPHOKINASE,"72 h, time 3 day",423.33 u/L
same,CREATININE,"72 h, time 3 day",0.36 mg/dL
same,GLUCOSE,"72 h, time 3 day",148.67 mg/dL
same,LACTATE DEHYDROGENASE,"72 h, time 3 day",236.33 u/L
same,LIPASE,"72 h, time 3 day",13 u/L
same,PHOSPHORUS,"72 h, time 3 day",11.07 mg/dL
same,POTASSIUM,"72 h, time 3 day",6.41 MEQ/L
same,SODIUM,"72 h, time 3 day",143.6 MEQ/L
same,TOTAL BILIRUBIN,"72 h, time 3 day",0.27 mg/dL
same,TOTAL PROTEIN,"72 h, time 3 day",5.63 G/DL
same,URIC ACID,"72 h, time 3 day",1.1 mg/dL
same,ABSOLUTE BASOPHIL,"120 h, time 5 day",0 CELLS/uL
same,ABSOLUTE EOSINOPHIL,"120 h, time 5 day",118 CELLS/uL
same,ABSOLUTE LYMPHOCYTE,"120 h, time 5 day",14441.67 CELLS/uL
same,ABSOLUTE MONOCYTE,"120 h, time 5 day",168.67 CELLS/uL
same,ABSOLUTE SEGMENTED NEUTROPHIL,"120 h, time 5 day",1438.33 CELLS/uL
same,BASOPHIL,"120 h, time 5 day",0%
same,EOSINOPHIL,"120 h, time 5 day",1%
same,ERYTHROCYTE COUNT,"120 h, time 5 day",5.58 x10E6/uL
same,HEMATOCRIT,"120 h, time 5 day",34.33%
same,HEMOGLOBIN,"120 h, time 5 day",13.8 G/DL
same,LEUKOCYTE COUNT,"120 h, time 5 day",16.17 x10E3/uL
same,LYMPHOCYTE,"120 h, time 5 day",90%
same,MEAN CORPUSCULAR HEMOGLOBIN,"120 h, time 5 day",24.77 pg
same,MEAN CORPUSCULAR HEMOGLOBIN CONCENTRATION,"120 h, time 5 day",40.2 G/DL
same,MEAN CORPUSCULAR VOLUME,"120 h, time 5 day",61.53 fL
same,MONOCYTE,"120 h, time 5 day",1%
same,NEUTROPHIL,"120 h, time 5 day",8%
same,NUCLEATED RED BLOOD CELLS,"120 h, time 5 day",0 /100WBC
same,PLATELET COUNT,"120 h, time 5 day",1237 x10E3/uL
same,ALANINE AMINOTRANSFERASE,"120 h, time 5 day",60.67 u/L
same,ALBUMIN,"120 h, time 5 day",4.13 G/DL
same,ALKALINE PHOSPHATASE,"120 h, time 5 day",356.33 u/L
same,ASPARTATE AMINOTRANSFERASE,"120 h, time 5 day",101 u/L
same,BLOOD UREA NITROGEN,"120 h, time 5 day",17 mg/dL
same,CARBON DIOXIDE,"120 h, time 5 day",27.67 mmol/L
same,CHLORIDE,"120 h, time 5 day",103.33 MEQ/L
same,CHOLESTEROL,"120 h, time 5 day",67.67 mg/dL
same,CREATINE PHOSPHOKINASE,"120 h, time 5 day",434 u/L
same,CREATININE,"120 h, time 5 day",0.18 mg/dL
same,GLUCOSE,"120 h, time 5 day",141 mg/dL
same,LACTATE DEHYDROGENASE,"120 h, time 5 day",660 u/L
same,LIPASE,"120 h, time 5 day",10.67 u/L
same,PHOSPHORUS,"120 h, time 5 day",11.17 mg/dL
same,POTASSIUM,"120 h, time 5 day",5.74 MEQ/L
same,SODIUM,"120 h, time 5 day",144.53 MEQ/L
same,TOTAL BILIRUBIN,"120 h, time 5 day",0.23 mg/dL
same,TOTAL PROTEIN,"120 h, time 5 day",5.77 G/DL
same,URIC ACID,"120 h, time 5 day",1.33 mg/dL
